The text below walks through data of US20250361230A1, “LATS Inhibitors and Uses Thereof” (The USA, as Represented by the Secretary, Dept. of Heath …, priority 2022, published 2025).

Read-outs that look alike come from different tables or passages of the source.

This assay concerns the target T1, LATS1 (Homo sapiens, UniProt O95835).
T1 sequence (O95835 1-1130): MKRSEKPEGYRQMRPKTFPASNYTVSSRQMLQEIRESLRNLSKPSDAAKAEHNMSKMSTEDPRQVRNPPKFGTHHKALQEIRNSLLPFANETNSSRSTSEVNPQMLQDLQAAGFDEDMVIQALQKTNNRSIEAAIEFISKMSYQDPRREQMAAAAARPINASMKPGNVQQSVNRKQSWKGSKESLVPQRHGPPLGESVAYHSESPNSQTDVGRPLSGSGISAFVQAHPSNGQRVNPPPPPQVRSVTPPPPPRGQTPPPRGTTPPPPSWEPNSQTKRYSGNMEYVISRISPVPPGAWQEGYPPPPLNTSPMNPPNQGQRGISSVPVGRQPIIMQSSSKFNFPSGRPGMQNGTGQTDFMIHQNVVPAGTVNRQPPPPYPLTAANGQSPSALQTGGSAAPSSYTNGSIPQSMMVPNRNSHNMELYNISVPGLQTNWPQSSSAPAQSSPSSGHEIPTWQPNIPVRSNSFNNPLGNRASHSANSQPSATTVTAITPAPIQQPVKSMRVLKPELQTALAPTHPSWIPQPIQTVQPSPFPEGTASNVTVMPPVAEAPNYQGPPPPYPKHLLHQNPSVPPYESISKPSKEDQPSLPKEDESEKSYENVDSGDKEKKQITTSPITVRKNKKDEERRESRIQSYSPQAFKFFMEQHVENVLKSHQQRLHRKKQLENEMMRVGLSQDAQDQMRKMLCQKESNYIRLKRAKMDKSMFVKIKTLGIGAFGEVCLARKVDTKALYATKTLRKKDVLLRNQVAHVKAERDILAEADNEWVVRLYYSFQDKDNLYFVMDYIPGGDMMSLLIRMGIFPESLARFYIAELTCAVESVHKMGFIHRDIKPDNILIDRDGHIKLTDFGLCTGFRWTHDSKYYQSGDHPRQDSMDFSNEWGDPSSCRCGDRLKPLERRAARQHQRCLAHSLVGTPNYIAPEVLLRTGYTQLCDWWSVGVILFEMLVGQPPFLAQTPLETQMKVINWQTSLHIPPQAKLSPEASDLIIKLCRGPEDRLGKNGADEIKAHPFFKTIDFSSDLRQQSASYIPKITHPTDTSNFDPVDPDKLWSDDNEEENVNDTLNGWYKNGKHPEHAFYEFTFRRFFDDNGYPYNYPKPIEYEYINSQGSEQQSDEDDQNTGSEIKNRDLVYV
Nature of the assay: RBC HotSpot kinase assay (33P-ATP, P81 filter-binding), LATS1. The assay is classed as biochemical. The settings on record: read-out: LATS1 IC50. The method in brief:
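Substrate in fresh buffer receives cofactors, then kinase, then compound in DMSO for a 20 min room-temperature preincubation. Reactions start with 33P-ATP and run 2 h; phosphorylation is read by P81 filter binding, and IC50 comes from a 10-point curve.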

Setting [1] is: Table 28, biochemical kinase assay.
Setting [2] is: Table 32, biochemical kinase assay.

As usually defined, the IC50 is the point on the concentration scale where inhibition reaches its midpoint. As to `Cc1cc(-c2ccnc3[nH]cc(F)c23)cc(F)c1[C@@]1(O)[C@H](C)CN(C(=O)[C@@H](CO)N(C)C)C[C@@H]1C` [Compound 313, (R)-2-(dimethylamino)-1-((3S,4S,5R)-4-(2-fluoro-4-(3-fluoro-1H-pyrrolo[2,3-b]pyridin-4-yl)-6-methylphenyl)-4-hydroxy-3,5-dimethylpiperidin-1-yl)-3-hydroxypropan-1-one], the IC50 under setting [1] was found to be 4.4 nM.
On the same count and under the same terms, in the case of `OC1(c2ccc(-c3ccnc4[nH]cc(F)c34)cc2)CC2(CNC2)C1` [Compound 319, 6-(4-(3-fluoro-1H-pyrrolo[2,3-b]pyridin-4-yl)phenyl)-2-azaspiro[3.3]heptan-6-ol] it was 66 nM.
For `NCC(O)(c1ccc(Cl)cc1)c1ccc(-c2ccnc3[nH]ccc23)cc1` (stereo not shown) [Compound 1001, 1-(4-(1H-pyrrolo[2,3-b]pyridin-4-yl)phenyl)-2-amino-1-(4-chlorophenyl)ethan-1-ol], the 50% inhibitory concentration (IC50) under setting [2] worked out at 1.8 nM.
On the same count and under the same terms, in the case of `NCC(O)(c1ccc(Cl)cc1)c1ccc(-c2ccnc3[nH]cc(F)c23)cc1` (stereo not shown) [Compound 1002, 2-amino-1-(4-chlorophenyl)-1-(4-(3-fluoro-1H-pyrrolo[2,3-b]pyridin-4-yl)phenyl)ethan-1-ol] it was 5.7 nM.
Still for that read-out and setting: for `COC(=O)c1c[nH]c2nccc(-c3ccc(C(O)(CN)c4ccc(Cl)cc4)cc3)c12` (stereo not shown) [Compound 1004, Methyl 4-(4-(2-amino-1-(4-chlorophenyl)-1-hydroxyethyl)phenyl)-1H-pyrrolo[2,3-b]pyridine-3-carboxylate] the value was 4 nM; for `NCC(O)(c1ccc(Cl)cc1)c1ccc(-c2ccnc3[nH]cc(Br)c23)cc1` (stereo not shown) [Compound 1005, 2-amino-1-(4-(3-bromo-1H-pyrrolo[2,3-b]pyridin-4-yl)phenyl)-1-(4-chlorophenyl)ethan-1-ol], 5.1 nM.
Take `NCC(O)(c1ccc(Cl)cc1)c1ccc(-c2ccnc3[nH]cc(-c4ccccc4)c23)cc1` (stereo not shown) [Compound 1006, 2-amino-1-(4-chlorophenyl)-1-(4-(3-phenyl-1H-pyrrolo[2,3-b]pyridin-4-yl)phenyl)ethan-1-ol]: the IC50 under setting [2] turned out to be 23 nM.
The same measure, in the same setting: in the case of `NCC(O)(c1ccc(Cl)cc1)c1ccc(-c2ccnc3[nH]cc(-c4cccnc4)c23)cc1` (stereo not shown) [Compound 1007, 2-amino-1-(4-chlorophenyl)-1-(4-(3-(pyridin-3-yl)-1H-pyrrolo[2,3-b]pyridin-4-yl)phenyl)ethan-1-ol] it was 4.3 nM; in that of `NCC(O)(c1ccc(Cl)cc1)c1ccc(-c2ccnc3[nH]cc(Br)c23)nc1` (stereo not shown) [Compound 1011, 2-amino-1-(6-(3-bromo-1H-pyrrolo[2,3-b]pyridin-4-yl)pyridin-3-yl)-1-(4-chlorophenyl)ethan-1-ol], 0.9 nM; in that of `NCC(=O)NCC(O)(c1ccc(Cl)cc1)c1ccc(-c2ccnc3[nH]cc(Cl)c23)cc1` (stereo not shown) [Compound 1021, 2-amino-N-(2-(4-(3-chloro-1H-pyrrolo[2,3-b]pyridin-4-yl)phenyl)-2-(4-chlorophenyl)-2-hydroxyethyl) acetamide], 3.7 nM.
As to `Cc1cc(-c2ccnc3[nH]cc(C#N)c23)cc(F)c1[C@@]1(O)[C@H](C)CN(C2CCS(=O)(=O)CC2)C[C@@H]1C` [Compound 2002, 4-(4-((3S,4s,5R)-1-(1,1-dioxidotetrahydro-2H-thiopyran-4-yl)-4-hydroxy-3,5-dimethylpiperidin-4-yl)-3-fluoro-5-methylphenyl)-1H-pyrrolo[2,3-b]pyridine-3-carbonitrile], the IC50 (biochemical kinase inhibition) was 10.9 nM.
With `Cc1cc(-c2ccnc3[nH]cc(C#N)c23)cc(F)c1[C@@]1(O)[C@H](C)CN(C(=O)CN)C[C@@H]1C` [Compound 2004, 4-(3-fluoro-4-((3S,4s,5R)-1-glycyl-4-hydroxy-3,5-dimethylpiperidin-4-yl)-5-methylphenyl)-1H-pyrrolo[2,3-b]pyridine-3-carbonitrile], the IC50 (biochemical kinase inhibition) came out at 6.7 nM.
On the same count and under the same terms, in the case of `Cc1cc(-c2ccnc3[nH]cc(C#N)c23)ccc1[C@@]1(O)[C@H](C)CN(C(=O)CN)C[C@@H]1C` [Compound 2005, 4-(4-((3S,4s,5R)-1-glycyl-4-hydroxy-3,5-dimethylpiperidin-4-yl)-3-methylphenyl)-1H-pyrrolo[2,3-b]pyridine-3-carbonitrile] it was 3.3 nM.
